From patent publication US8148391B2 (Cephalon, Inc., priority 2006, dated 2012)
Like-named read-outs stand apart in the source and are kept apart here. Blank lines part the entries; values can stand above or below the compound they belong to.

Key:
[1] = target: T1, c-Met (cytoplasmic domain) (Homo sapiens, UniProt P08581); assay: c-Met Kinase Assay (same methods as for ALK, with modifications); assay type: biochemical
T1 construct: 10 ng/mL c-Met (cytoplasmic domain, Invitrogen Corporation #PV3143); purchased Invitrogen Corporation PV3143
T1 sequence (P08581 956-1390 limits assumed): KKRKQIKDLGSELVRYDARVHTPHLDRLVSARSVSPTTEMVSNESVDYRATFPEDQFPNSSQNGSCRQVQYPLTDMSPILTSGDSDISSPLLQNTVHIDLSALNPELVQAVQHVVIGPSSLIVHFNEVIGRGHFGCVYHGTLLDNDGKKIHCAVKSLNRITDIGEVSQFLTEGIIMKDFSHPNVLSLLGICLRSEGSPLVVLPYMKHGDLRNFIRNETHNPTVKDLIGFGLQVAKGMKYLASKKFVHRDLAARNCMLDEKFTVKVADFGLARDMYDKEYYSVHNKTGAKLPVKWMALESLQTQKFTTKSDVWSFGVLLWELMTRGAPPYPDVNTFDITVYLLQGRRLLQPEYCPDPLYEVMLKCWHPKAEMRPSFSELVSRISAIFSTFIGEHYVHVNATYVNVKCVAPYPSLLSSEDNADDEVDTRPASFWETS
In short: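 IC50 values were fitted by variable-slope sigmoidal regression of percent inhibition against log compound concentration. Phosphorylation was read with Eu-N1 PT66 antibody after a 15 min, 37 °C reaction. The reaction was initiated with 10 ng/mL c-Met cytoplasmic domain on wells coated with 10 μg/mL PLC-γ in TBS.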

[2] = target: T2, baculovirus-expressed ALK (Homo sapiens, UniProt Q9UM73); assay: ALK Kinase Assay (ELISA-type, time-resolved fluorescence); assay type: biochemical
T2 construct: host or cells: baculovirus expression system
T2 sequence (Q9UM73 19-1620): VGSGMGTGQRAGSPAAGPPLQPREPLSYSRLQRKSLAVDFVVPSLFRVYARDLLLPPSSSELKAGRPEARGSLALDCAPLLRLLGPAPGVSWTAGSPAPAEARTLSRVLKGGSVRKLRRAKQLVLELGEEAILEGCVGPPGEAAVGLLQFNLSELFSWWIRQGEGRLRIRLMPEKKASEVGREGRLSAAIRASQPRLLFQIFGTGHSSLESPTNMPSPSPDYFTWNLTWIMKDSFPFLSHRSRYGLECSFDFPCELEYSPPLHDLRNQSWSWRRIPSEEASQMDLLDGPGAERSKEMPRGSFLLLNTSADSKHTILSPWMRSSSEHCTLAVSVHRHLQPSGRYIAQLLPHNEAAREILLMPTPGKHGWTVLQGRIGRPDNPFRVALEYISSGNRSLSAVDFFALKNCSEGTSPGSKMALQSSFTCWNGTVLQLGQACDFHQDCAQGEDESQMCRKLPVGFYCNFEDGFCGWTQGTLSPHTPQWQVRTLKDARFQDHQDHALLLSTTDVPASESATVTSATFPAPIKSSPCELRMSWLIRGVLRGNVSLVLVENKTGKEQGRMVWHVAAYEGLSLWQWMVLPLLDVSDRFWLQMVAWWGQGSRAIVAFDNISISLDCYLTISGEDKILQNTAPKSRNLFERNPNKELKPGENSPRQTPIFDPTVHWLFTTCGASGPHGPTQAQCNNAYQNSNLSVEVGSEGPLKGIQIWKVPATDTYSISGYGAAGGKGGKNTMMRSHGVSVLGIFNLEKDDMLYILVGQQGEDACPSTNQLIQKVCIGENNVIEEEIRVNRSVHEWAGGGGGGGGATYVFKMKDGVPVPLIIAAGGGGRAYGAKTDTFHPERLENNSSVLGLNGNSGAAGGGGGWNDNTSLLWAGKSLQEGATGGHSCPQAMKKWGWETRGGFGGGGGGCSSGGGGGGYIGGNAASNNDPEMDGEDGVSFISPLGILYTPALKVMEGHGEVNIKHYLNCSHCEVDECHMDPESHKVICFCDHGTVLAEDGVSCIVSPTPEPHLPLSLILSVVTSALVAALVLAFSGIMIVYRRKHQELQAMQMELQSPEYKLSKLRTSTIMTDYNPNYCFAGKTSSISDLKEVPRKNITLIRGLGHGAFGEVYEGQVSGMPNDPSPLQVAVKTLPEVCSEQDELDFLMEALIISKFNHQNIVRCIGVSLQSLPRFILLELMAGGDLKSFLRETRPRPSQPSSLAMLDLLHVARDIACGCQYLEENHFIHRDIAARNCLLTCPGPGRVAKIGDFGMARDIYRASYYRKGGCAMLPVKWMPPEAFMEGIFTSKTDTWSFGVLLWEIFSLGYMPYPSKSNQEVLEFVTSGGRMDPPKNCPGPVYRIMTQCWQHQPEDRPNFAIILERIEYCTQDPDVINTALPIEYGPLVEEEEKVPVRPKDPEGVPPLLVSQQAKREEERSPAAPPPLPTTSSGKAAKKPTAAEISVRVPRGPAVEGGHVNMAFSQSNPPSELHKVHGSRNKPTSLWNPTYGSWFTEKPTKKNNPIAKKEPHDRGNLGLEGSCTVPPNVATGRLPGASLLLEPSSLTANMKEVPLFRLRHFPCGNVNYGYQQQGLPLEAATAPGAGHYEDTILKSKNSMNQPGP
In short: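 Wells were coated with phospholipase C-γ at 10 μg/mL in Tris-buffered saline. Adding 30 ng/ml enzyme started the reaction, which ran at 37° C for 15 minutes before Eu-N1 PT66 antibody detection. Percent inhibition versus log10 concentration gave IC50 by variable-slope fit.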

[3] = c-Met kinase inhibition, 1 μM ATP (Km level), read-out: cMet Activity
[4] = ALK kinase inhibition, 1 μM ATP (Km level), read-out: ALK Activity
[5] = 1 μM ATP (Km level), 10 ng/mL c-Met, read-out: cMet Activity (c-Met kinase inhibition, IC50 class)
[6] = 1 μM ATP (Km level), 30 ng/ml ALK, 37° C., 15 minutes, read-out: ALK Activity (ALK kinase inhibition, IC50 class)
[7] = c-Met kinase inhibition, 1 μM ATP, read-out: cMet Activity
[8] = ALK kinase inhibition, 1 μM ATP, read-out: ALK Activity

Compound: CNC(=O)c1ccccc1Nc1nc(Nc2ccc3c(c2)C2CC3CN(S(C)(=O)=O)C2)ncc1Cl (stereo not drawn) [Example 164, 2-[5-Chloro-2-(10-methanesulfonyl-10-aza-tricyclo[6.3.1.0*2,7*]dodeca-2,4,6-trien-4-ylamino)-pyrimidin-4-ylamino]-N-methyl-benzamide]
IC50 [1, 3]: < 100 nM
IC50 [2, 4]: 100 to 1000 nM

Compound: CN(CCC#N)c1cccc(F)c1Nc1nc(Nc2ccc3c(c2)C(C)(C)CCC(=O)N3)ncc1Cl [Example 1267, 3-({2-[5-Chloro-2-(5,5-dimethyl-2-oxo-2,3,4,5-tetrahydro-1H-1-benzazepin-7-ylamino)-pyrimidin-4-ylamino]-3-fluoro-phenyl}-methyl-amino)-propionitrile]
IC50 [1, 5]: 1000 to 10000 nM
IC50 [2, 6]: 100 to 1000 nM

Compound: CNC(=O)c1cccc(F)c1Nc1nc(Nc2ccc3c(c2)-n2ccnc2CCC3(C)C)ncc1Cl [Example 1270, 2-[5-Chloro-2-(6,6-dimethyl-5,6-dihydro-4H-3,10b-diaza-benz[e]azulen-9-ylamino)-pyrimidin-4-ylamino]-3-fluoro-N-methyl-benzamide]
IC50 [1, 5]: < 100 nM
IC50 [2, 6]: 100 to 1000 nM

Compound: CNC(=O)c1ccccc1Nc1nc(Nc2ccc3c(c2)CCCC(=O)N3C)ncc1Br [Example 197, 2-[5-Bromo-2-(1-methyl-2-oxo-2,3,4,5-tetrahydro-1H-benzo[b]azepin-7-ylamino)-pyrimidin-4-ylamino]-N-methyl-benzamide]
IC50 [1, 3]: < 100 nM
IC50 [2, 4]: < 100 nM

Compound: CNC(=O)c1ccccc1Nc1nc(Nc2cc3c(cc2OC)N(C)C(=O)OCC3)ncc1Br [Example 1507, 2-[5-Bromo-2-(3-methoxy-5-methyl-6-oxo-5,6,8,9-tetrahydro-7-oxa-5-aza-benzocyclohepten-2-ylamino)-pyrimidin-4-ylamino]-N-methyl-benzamide]
IC50 [1, 7]: 100 to 1000 nM
IC50 [2, 8]: < 100 nM

Compound: CNC(=O)c1sc(Br)c(C)c1Nc1nc(Nc2ccc3c(c2)CCOC(=O)N3C)ncc1Cl [Example 1771, 5-Bromo-3-[5-chloro-2-(5-methyl-6-oxo-5,6,8,9-tetrahydro-7-oxa-5-aza-benzocyclohepten-2-ylamino)-pyrimidin-4-ylamino]-4-methyl-thiophene-2-carboxylic acid methylamide]
IC50 [1, 7]: < 100 nM
IC50 [2, 8]: 100 to 1000 nM

Compound: CNC(=O)c1ccccc1Nc1nc(Nc2cccc3c2C(=O)NC(C)CN3C(=O)C(F)(F)F)ncc1Cl (stereo not drawn) [Example 229, 2-{5-Chloro-2-[3-methyl-5-oxo-1-(2,2,2-trifluoro-acetyl)-2,3,4,5-tetrahydro-1H-benzo[e][1,4]diazepin-6-ylamino]-pyrimidin-4-ylamino}-N-methyl-benzamide]
IC50 [1, 3]: > 10000 nM
IC50 [2, 4]: > 10000 nM

Compound: CN1C(=O)OCCc2cc(Nc3ncc(Cl)c(Nc4ccccc4-c4nccn4C)n3)ccc21 [Example 1749, 2-{5-chloro-4-[2-(1-methyl-1H-imidazol-2-yl)-phenylamino]-pyrimidin-2-ylamino}-5-methyl-8,9-dihydro-5H-7-oxa-5-aza-benzocyclohepten-6-one]
IC50 [1, 7]: 100 to 1000 nM
IC50 [2, 8]: < 100 nM

Compound: CNC(=O)c1sccc1Nc1nc(Nc2ccc3c(c2)N(C(C)=O)CCCO3)ncc1Cl [Example 1702, 3-[2-(9-Acetyl-6,7,8,9-tetrahydro-5-oxa-9-aza-benzocyclohepten-2-ylamino)-5-chloro-pyrimidin-4-ylamino]-thiophene-2-carboxylic acid methylamide]
IC50 ([1]; cMet Activity, c-Met kinase inhibition, 1 μM ATP): < 100 nM
IC50 [2, 8]: 1000 to 10000 nM

Compound: COc1cc2c(cc1Nc1ncc(Cl)c(Nc3ccccc3-n3cccn3)n1)CCN(CC(F)F)CC2 [Example 823, 5-Chloro-N*2*-[3-(2,2-difluoro-ethyl)-8-methoxy-2,3,4,5-tetrahydro-1H-benzo[d]azepin-7-yl]-N*4*-(2-pyrazol-1-yl-phenyl)-pyrimidine-2,4-diamine]
IC50 ([1]; 1 μM ATP (Km level), read-out: cMet Activity (c-Met Kinase Inhibition, IC50)): > 10000 nM
IC50 ([2]; 1 μM ATP (Km level), read-out: ALK Activity (ALK Kinase Inhibition, IC50)): < 100 nM

Compound: CCN1CCCOc2ccc(Nc3ncc(Cl)c(Nc4c(F)cc(-c5cnn(C)c5)cc4C(=O)NC)n3)cc21 [Example 1425, 2-[5-Chloro-2-(9-ethyl-6,7,8,9-tetrahydro-5-oxa-9-aza-benzocyclohepten-2-ylamino)-pyrimidin-4-ylamino]-3-fluoro-N-methyl-5-(1-methyl-1H-pyrazol-4-yl)-benzamide]
IC50 [1, 5]: < 100 nM
IC50 [2, 6]: < 100 nM

The next lines start with the values.

IC50 [1, 3]: < 100 nM
IC50 [2, 4]: < 100 nM
Compound: CCN1CCc2ccc(Nc3ncc(Cl)c(N[C@@H]4CCCC[C@H]4NC(C)=O)n3)cc2CC1 [Example 445, N-{(1R,2R)-2-[5-Chloro-2-(3-ethyl-2,3,4,5-tetrahydro-1H-benzo[d]azepin-7-ylamino)-pyrimidin-4-ylamino]-cyclohexyl}-acetamide]

IC50 [1, 3]: 1000 to 10000 nM
IC50 [2, 4]: < 100 nM
Compound: COCCN1CCc2cc(Nc3ncc(Cl)c(Nc4ccccc4NS(C)(=O)=O)n3)c(OC)cc2CC1 [Example 242, N-(2-{5-Chloro-2-[8-methoxy-3-(2-methoxy-ethyl)-2,3,4,5-tetrahydro-1H-benzo[d]azepin-7-ylamino]-pyrimidin-4-ylamino}-phenyl)-methanesulfonamide]

IC50 [1, 7]: 1000 to 10000 nM
IC50 [2, 8]: 1000 to 10000 nM
Compound: O=C1CCCc2ccc(Nc3ncc(Cl)c(Nc4c(F)cccc4C(=O)NCC4CC4)n3)cc2N1 [Example 1712, 2-[5-Chloro-2-(2-oxo-2,3,4,5-tetrahydro-1H-benzo[b]azepin-8-ylamino)-pyrimidin-4-ylamino]-N-cyclopropylmethyl-3-fluoro-benzamide]

IC50 [1, 5]: > 10000 nM
IC50 [2, 6]: 100 to 1000 nM
Compound: COCCN1CCc2ccc(Nc3ncc(Cl)c(N[C@H]4CC[C@H](NS(C)(=O)=O)CC4)n3)cc2CC1 [Example 1378, trans-N-(4-{5-Chloro-2-[3-(2-methoxy-ethyl)-2,3,4,5-tetrahydro-1H-benzo[d]azepin-7-ylamino]-pyrimidin-4-ylamino}-cyclohexyl)-methanesulfonamide]

IC50 [1, 5]: > 10000 nM
IC50 [2, 6]: 100 to 1000 nM
Compound: COc1ccc2c(c1Nc1ncc(Cl)c(N[C@@H]3CCCC[C@H]3NS(C)(=O)=O)n1)CCC(N1CCOCC1)CC2 (stereo partly drawn) [Example 1070, N-{(1R,2R)-2-[5-Chloro-2-(2-methoxy-7-morpholin-4-yl-6,7,8,9-tetrahydro-5H-benzocyclohepten-1-ylamino)-pyrimidin-4-ylamino]-cyclohexyl}-methanesulfonamide]

IC50 [1, 3]: 1000 to 10000 nM
IC50 [2, 4]: < 100 nM
Compound: CN1CCN(CCO)Cc2ccc(Nc3ncc(Cl)c(N[C@@H]4CCCC[C@H]4NS(C)(=O)=O)n3)cc21 [Example 478, N-((1R,2R)-2-{5-Chloro-2-[4-(2-hydroxy-ethyl)-1-methyl-2,3,4,5-tetrahydro-1H-benzo[e][1,4]diazepin-8-ylamino]-pyrimidin-4-ylamino}-cyclohexyl)-methanesulfonamide]

IC50 [1, 3]: 1000 to 10000 nM
IC50 [2, 4]: < 100 nM
Compound: CCN1C(=O)CCCc2cc(Nc3ncc(Cl)c(Nc4c(F)cccc4C(=O)NC)n3)c(OC)cc21 [Example 138, 2-[5-Chloro-2-(1-ethyl-8-methoxy-2-oxo-2,3,4,5-tetrahydro-1H-benzo[b]azepin-7-ylamino)-pyrimidin-4-ylamino]-3-fluoro-N-methyl-benzamide]

IC50 [1, 3]: 1000 to 10000 nM
IC50 [2, 4]: < 100 nM
Compound: COCCN1CCN(C)c2ccc(Nc3ncc(Cl)c(N[C@@H]4CCCC[C@H]4NS(C)(=O)=O)n3)cc2C1 [Example 430, N-((1R,2R)-2-{5-Chloro-2-[4-(2-methoxy-ethyl)-1-methyl-2,3,4,5-tetrahydro-1H-benzo[e][1,4]diazepin-7-ylamino]-pyrimidin-4-ylamino}-cyclohexyl)-methanesulfonamide]

IC50 [1, 5]: 1000 to 10000 nM
IC50 [2, 6]: < 100 nM
Compound: COc1cc2c(cc1Nc1ncc(Cl)c(Nc3ccccc3S(=O)(=O)N(C)C)n1)CCN(Cc1ncco1)CC2 [Example 1170, 2-[5-Chloro-2-(8-methoxy-3-oxazol-2-ylmethyl-2,3,4,5-tetrahydro-1H-benzo[d]azepin-7-ylamino)-pyrimidin-4-ylamino]-N,N-dimethyl-benzenesulfonamide]

IC50 [1, 7]: 1000 to 10000 nM
IC50 [2, 8]: < 100 nM
Compound: COc1cc2c(cc1Nc1ncc(Cl)c(Nc3ccccc3S(=O)(=O)N3CC[C@@H](O)C3)n1)CCN(CC(C)(C)O)CC2 [Example 1561, (R)-1-(2-{5-Chloro-2-[3-(2-hydroxy-2-methyl-propyl)-8-methoxy-2,3,4,5-tetrahydro-1H-3-benzazepin-7-ylamino]-pyrimidin-4-ylamino}-benzenesulfonyl)-pyrrolidin-3-ol]

IC50 [1, 5]: > 10000 nM
IC50 [2, 6]: 1000 to 10000 nM
Compound: COc1ccc2c(c1Nc1ncc(Cl)c(N[C@@H]3CCCC[C@H]3NS(C)(=O)=O)n1)CCC(NCC(F)F)CC2 (single isomer, unassigned) [Example 1075]

IC50 [1, 3]: > 10000 nM
IC50 [2, 4]: < 100 nM
Compound: COc1c(Nc2ncc(Cl)c(NC3C4C=CC(C4)C3C(N)=O)n2)ccc2c1CCCC(=O)N2C (stereo not drawn) [Example 115, (2-exo, 3-exo)-3-[5-Chloro-2-(6-methoxy-1-methyl-2-oxo-2,3,4,5-tetrahydro-1H-benzo[b]azepin-7-ylamino)-pyrimidin-4-ylamino]-bicyclo[2.2.1]hept-5-ene-2-carboxylic acid amide]

IC50 [1, 3]: > 10000 nM
IC50 [2, 4]: < 100 nM
Compound: COc1cc2c(cc1Nc1ncc(Cl)c(Nc3ccc(N4CCOCC4)cc3OC)n1)CCN(CC(F)(F)F)CC2 [Example 249, 5-Chloro-N*4*-(2-methoxy-4-morpholin-4-yl-phenyl)-N*2*-[8-methoxy-3-(2,2,2-trifluoro-ethyl)-2,3,4,5-tetrahydro-1H-benzo[d]azepin-7-yl]-pyrimidine-2,4-diamine]
